In patent publication US20100274500A1, “METHOD AND SYSTEM FOR MEASURING MEMBRANE POTENTIAL BASED ON FLUORESCENCE POLARIZATION” (Seng Enterprises Ltd., priority 2006, published 2010):
Values joined by “and” are separate entries in the source; they are usually repeats but may differ in a detail not shown here. Identical values can stand only once.

Columns and labels:
U937 promonocytic cells [1] = test: Fluorescence lifetime measurements in U937 cells stained with Rh123; assay type: cell-based; conditions: for f1(weight) / α1(decay) / τ1(lifetime): long lifetime component (attributed to cytoplasm); for f2(weight) / α2(decay) / τ2(lifetime): short lifetime component (attributed to mitochondria); for fluorescence signal from the probe located in the mitochondria: weight of the short decay component
Protocol: Cell treatment: U937 promonocytic cells were treated with an oxidative phosphorylation uncoupler CCCP and Nigericin as described hereinabove.
Cell staining: Cells were stained by treating with Rh123 and loaded in cell chips.
Fluorescence lifetime measurement: Measurements were carried out using polarizers that were set at magic […]. Rh123 was excited by a 488 nm laser line. Fluorescence testing was conducted from 500 nm wavelengths and above (toward the red area).
The results were obtained from an average, encompassing 30 evaluations, with standard deviations recorded accordingly. The outstanding result is the fact that two lifetime groups were obtained, one long—above 4 nanoseconds—and one short—below 3 nanoseconds. In order to determine which region correlates with which lifetime group both the lifetimes and the weights were considered.

U937 promonocytic cells [2] = test: Fluorescence polarization measurements in U937 cells stained with Rh123; assay type: cell-based; conditions: for Mean Polarization: average based on 300 U937 cells stained with Rh123; for Mean Polarization / Mean FP, Left Cell / Mean FP, Right Cell: CCCP 5 μM or Nigericin 5 μg/ml, 15 minutes; for Mean FP, Left Cell / Mean FP, Right Cell: overall polarization of the entire cell, U937 stained with Rh123
Protocol: Fluorescence polarization (FP) evaluation was conducted using U937 promonocytic cells under the following physiological conditions: control, following treatment with CCCP and following treatment with Nigericin. All the cells were stained with Rh123, rinsed, loaded in cell chips and then measured. Cell treatment: U937 promonocytic cells were treated with an oxidative phosphorylation uncoupler CCCP (commercially available from Sigma-Aldrich) at a concentration of 5 μM and Nigericin (commercially available from Sigma-Aldrich) at 5 μg/ml for 15 minutes. Cell staining: Cells were stained by treating with […] Rh123 and loaded in cell chips. Fluorescence polarization measurement: Transmitted light images and fluorescence images were obtained parallel to the excitation field (excitation and emission polarizers set at 0°), and perpendicular to it, with the excitation polarizer set at 0°, and the emission polarizer set at 90°. From every pair of parallel and perpendicular images, the FP value was calculated for each pixel, using the following equation and a polarization map was created according to the following equation: In order to obtain a calibration reference point, the polarization value was obtained from the entire cell. […] Accordingly, a cell chip was used which allowed defining the borders of the cell by means of images of the cell received through transmitted light photographs. The borders were projected on the polarization map and the FP average was calculated for each cell. This process was implemented to evaluate all the cells, and a general average was obtained for each given physiological state.

[3] = system: mitochondria of U937 cells; test: Mitochondrial membrane potential derived from lifetime decay weights with the Nernst equation; assay type: cell-based; conditions: estimated with the f value, Nernst equation at 300° K, VC/VM≅500, U937 cells treated with CCCP
Excerpt: The following example describes the use of weights ƒ and/or α, decay components, to estimate the probe concentration in the mitochondria and the cytoplasm and from this to derive the membrane potential using the Nernst Equation.
The weight is proportional to the total measured fluorescence signal from an area with a certain fluorescence lifetime. In relying on the results of the measurement, it can be assumed that the decay level in the mitochondria and the cytoplasm is equal and, therefore, is not taken into consideration. In order to convert the weight ratio to concentration ratios, it is necessary to multiply them by the inverted volume ratio, i.e., VC/VM (C-Cytoplasm, M-Mitochondria). Given that this ratio is constant for a certain type of synchronized cells, [data not shown], despite the complex measurement-calculation, it is enough to execute this operation only once.
Considering the Nernst equation at 300° K and the measured fluorescence signal: […]

U937 cells = test: Spectroscopic measurements in whole and ruptured cells stained with Rh123; assay type: cell-based
Protocol: There were two main goals to these experiments. The first goal was to ascertain whether a fluorescence intensity decreases in cells treated with CCCP, and similarly, to ascertain whether fluorescence intensity increases in cells treated with Nigericin. The second goal was to learn about the characteristics and amount of influence of the cellular medium on the Rh123 spectroscopic properties.
The cells were stained with Rh123 at a concentration of 3 μM and suspended in PBS, at a cell concentration of 350,000/ml. At this cell concentration, no scattered signal was detected in the fluorescence measurement setup.
The measurement was conducted in CARY spectrofluorometer. The excitation was performed at 480±10 nm and the fluorescence was collected using a 530±10 nm filter. The cell suspension was divided into 4 aliquots in volumes of 2 ml, each. First, the spectrum for all the parts was measured and a comparison was performed to verify equal cell concentration in each quota. Second, parts 3 and 4 were treated with CCCP, while acetone was added to parts 1 and 2, at the same concentration and volume as that in which the CCCP was dissolved, and a spectrum measurement was made. At the end of this process, parts 1 and 3 were ruptured by sonication (VCX 130, Sonics and Materials Inc, Newtown, USA), and parts 2 and 4 were centrifuged and the supernatant was removed to measure the background.
Since there are differences in the emission spectrum of Rh123 in the mitochondria and cytoplasm, the area under the emission graphs must also be calculated in estimating the given spectral effect of CCCP. The area is proportionate to the number of emitting molecules and not to the measured intensity.
Cell preparation and measurement were conducted using the Cary system, and were identical to those with CCCP, except that Nigericin was used for […] the cells.
The overall emission intensity was calculated as above for CCCP to investigate the cause of the fluorescence intensity increase by calculating the area below the emission graph. The columns show average values and standard deviation values of at least two identical experiments. The stars indicate the significant statistical differences before the ANOVA test.

[4] = Direct influence of CCCP and Nigericin on emission spectrum, polarization and lifetime of Rh123 in suspension
Protocol: A suspension of Rh123 at a concentration of 0.5 μg/ml was prepared. The suspension was divided into three aliquots, each containing a volume of 1 ml. To the first part was added 2.5 μl of PBS. To the second part was added 2.5 μl CCCP at a concentration of 2 mM, so that a final concentration of 5 μM CCCP was reached. To the third part was added 2.5 μl of Nigericin, at a concentration of 2 mg/ml, so that a final concentration of 5 μg/ml Nigericin was reached.
In the first stage, the emission spectrum of the suspension was obtained, using CARY ECLIPSE. The suspensions were excited with 480 nm light and the fluorescence was measured between 500-600 nm, while the slits (emission and excitation) were 2.5 nm.
The direct influence of CCCP and/or Nigericin were tested on the same suspensions of Rh123, measuring the lifetimes in contrast to the control.

[5] = Direct influence of pH on the fluorescence lifetime of Rh123 and NAO; assay type: physicochemical; conditions: Rh123 5 μg/ml, NAO 10 μM
Protocol: The intra-cellular environment is heterogeneous and multi-phased; therefore, changes may occur in the acidity level in different regions in the cell. Measurements were executed, for this reason, to test if the acidic level has any influence on the fluorescence lifetime of the Rh123. The measurements were conducted in a K2 system, in a suspension of Rh123 with a concentration of 13 μM and the suspension of NAO, in a concentration of 10 μM with an acidity level of 6.0, 7.4 and 8.5.

[6] = Direct influence of viscosity (glycerol) on FLT and FP of Rh123 and NAO; assay type: physicochemical; conditions: Rh123 5 μg/ml, NAO 10 μM
Protocol: In these tests, the fluorescence lifetime τF was also measured along with the rotational decay time τR. For this, Rh123 (5 μg/ml) and suspension NAO (10 μM) were dissolved in three glycerol suspensions (30%, 60% and 80% v/v) in PBS. Each measurement was performed in triplicate.

SMILES | f1(weight) (U937 promonocytic cells [1]) | α1(decay) (U937 promonocytic cells [1]) | τ1(lifetime) (U937 promonocytic cells [1]) | f2(weight) (U937 promonocytic cells [1]) | α2(decay) (U937 promonocytic cells [1]) | τ2(lifetime) (U937 promonocytic cells [1]) | fluorescence signal from the probe located in the mitochondria (U937 promonocytic cells [1]) | Mean Polarization (U937 promonocytic cells [2]) | Mean FP, Left Cell (U937 promonocytic cells [2]) | Mean FP, Right Cell (U937 promonocytic cells [2]) | Fluorescence life-time τF ([5]; pH 6.0) | Fluorescence life-time τF ([5]; pH 7.4) | Fluorescence life-time τF ([5]; pH 8.5) | FP ([6]; Glycerin 30% v/v in PBS) | τF ([6]; Glycerin 30% v/v in PBS) | τR (rotational decay time) ([6]; Glycerin 30% v/v in PBS) | FP ([6]; Glycerin 60% v/v in PBS) | τF ([6]; Glycerin 60% v/v in PBS) | τR (rotational decay time) ([6]; Glycerin 60% v/v in PBS) | FP ([6]; Glycerin 80% v/v in PBS) | further results
N#CC(C#N)=NNc1cccc(Cl)c1 [CCCP] | 0.867 | 0.690 ± 0.105 | 4.27 nsec and 4.271 ± 0.292 nsec | 0.133 | 0.310 ± 0.100 | 1.475 ± 0.423 nsec | about 30% | 0.346 ± 0.013 | 0.343 ± 0.034 | 0.324 ± 0.046 | – | – | – | – | – | – | – | – | – | – | Δψ (mitochondrial membrane potential) [3]: ~−112.84 mV; number of fluorescent molecules (overall emission intensity following cell rupture) (U937 cells; ruptured U937 cells stained with Rh123, with and without CCCP): does not diminish the number of fluorescent molecules; leakage of the probe (background signal of the suspending solution) (U937 cells; supernatant of U937 cells stained with Rh123 following CCCP treatment): causes leakage from the entire cell; emission maximum wavelength of intra-cellular Rh123 following activation of CCCP (U937 cells; whole U937 cells stained with Rh123 3 μM, 534 nm before CCCP): 532 nm
CO[C@@H]1C[C@@H](C[C@H]2CC[C@H](C)[C@H]([C@@H](C)C(=O)O)O2)O[C@]2(O[C@](C)([C@H]3CC[C@@](C)([C@@H]4O[C@@H]([C@H]5O[C@@](O)(CO)[C@H](C)C[C@@H]5C)C[C@@H]4C)O3)C[C@H]2C)[C@@H]1C [Nigericin] | 0.330 | 0.138 ± 0.048 | 7.735 ± 0.828 nsec | 0.670 | 0.862 ± 0.030 | 2.519 ± 0.174 nsec | 86% | 0.258 ± 0.025 | 0.255 ± 0.057 | 0.253 ± 0.048 | – | – | – | – | – | – | – | – | – | – | fluorescence signal from the probe found in the cytoplasm (U937 promonocytic cells [1]; weight of the long decay component): 14%; polarization values in the mitochondrial areas (U937 promonocytic cells [2]; polarization map of U937 cells stained with Rh123, compared with control): lower; overall emission intensity from a suspension of ruptured cells (U937 cells; U937 cells treated prior to rupture, entire emission range): higher than that received from an untreated cell suspension; overall emission intensity from whole cells (U937 cells; whole U937 cells stained with Rh123, complete emission range): higher than that of untreated cells
COC(=O)c1ccccc1-c1c2ccc(=N)cc-2oc2cc(N)ccc12.Cl [Rh123] | – | – | – | – | – | – | – | – | – | – | 4.204 ± 0.064 nsec | 4.325 ± 0.007 nsec | 4.215 ± 0.037 nsec | 0.090 ± 0.007 | 3.861 ± 0.142 nsec | 0.460 ± 0.010 nsec | 0.200 ± 0.005 | 3.536 ± 0.018 nsec | 2.219 ± 0.006 nsec | 0.366 ± 0.010 | lifetime of Rh123 in a water suspension (PBS) [4]: ~4.2 nsec; τF ([6]; Glycerin 80% v/v in PBS): 3.500 ± 0.211 nsec; τR (rotational decay time) ([6]; Glycerin 80% v/v in PBS): 8.463 ± 0.047 nsec
CCCCCCCCC[n+]1c2cc(N(C)C)ccc2cc2ccc(N(C)C)cc21.[Br-] [NAO] | – | – | – | – | – | – | – | – | – | – | 1.086 ± 0.028 nsec | 1.051 ± 0.003 nsec | 1.066 ± 0.006 nsec | 0.110 ± 0.007 | 1.599 ± 0.072 nsec | 0.923 ± 0.181 nsec | 0.179 ± 0.009 | 2.081 ± 0.056 nsec | 1.298 ± 0.057 nsec | 0.303 ± 0.004 | τF ([6]; Glycerin 80% v/v in PBS): 2.556 ± 0.009 nsec; τR (rotational decay time) ([6]; Glycerin 80% v/v in PBS): 3.888 ± 0.181 nsec
